According to US9170264B2, “Methods of monitoring for adherence to aripiprazole therapy” (Ameritox, Ltd., priority 2013, dated 2015):
“And” between values parts separate entries of the source, which are not always exact repeats. Equal entries are not always repeated.

Experiments:
[1] = cited from earlier work
[2] = Levels of OPC3373, aripiprazole and dehydroaripiprazole in urine of humans taking chronic doses of aripiprazole (Example 1); type: in vivo, human; details: for Levels in Human Urine: individual specimens, chronic doses of aripiprazole, LOQ OPC3373 100 ng/mL, dehydroaripiprazole 5 ng/mL, aripiprazole 5 ng/mL
Description: (§1) The concentration of any analyte described in the present disclosure may be determined (e.g., measured) by any suitable quantification method. In some embodiments, the concentration of an analyte (e.g., aripiprazole, dehydroaripiprazole, and/or OPC3373) is measured by tandem liquid chromatography-mass spectrometry-mass spectrometry (“LC/MSMS”). In some embodiments, the concentration of an analyte (e.g., aripiprazole, dehydroaripiprazole, and/or OPC3373) is measured by tandem liquid chromatography-High Resolution mass spectrometry (Time of Flight (TOF)) (“LC/MS(TOF)”). In some embodiments, the concentration of an analyte (e.g., aripiprazole, dehydroaripiprazole, and/or OPC3373) is measured by direct injection mass spectrometry-mass spectrometry ([…]) e.g., such systems as RapidFire™ (Agilent) or Laser Diode Thermal Desorption (“LDTD”) (Phytronix) to introduce samples into the mass spectrometer; either triple quadrupole (i.e., MSMS) or exact mass (i.e., Time of Flight, Orbitrap, etc.) instruments
The appearance of OPC3373 (4-[(2-Oxo-1,2,3,4-tetrahydro-7-quinolinyl)oxy]butanoic acid, BMS-337047) as the major aripiprazole metabolite in the urine can be used to help monitor patient adherence to aripiprazole therapy. While analysis of both aripiprazole and the plasma metabolite, dehydroaripiprazole, can be used to monitor patient adherence, the relatively low levels of these molecules in the urine frequently results in “false negatives” in patients known to be taking aripiprazole.

[3] = Urine testing of aripiprazole positive patients in a controlled study, LC/MSMS (Example 2); type: in vivo, human; details: 5 mg q day, individual samples, LLOQ aripiprazole 5, dehydroaripiprazole 5, OPC3373 25 ng/mL
Description: as §1
An additional set of aripiprazole positive patients was monitored for levels of aripiprazole, dehyrdroaripiprazole, and OPC3373 in their urine.
Dehydroaripiprazole: 5 ng/mL
These analyses were completed using LC/MSMS.

[4] = Urine testing for compliance over 5 days, patients prescribed 30 mg/day Abilify (Example 3); type: in vivo, human; details: for urine concentration: 30 mg/day Abilify, individual subjects
Description: as §1
The urine of 5 patients who were prescribed 30 mg of Abilify® (aripiprazole) was tested for compliance over 5 days (Table 3). […] Without OPC3373, only 93% were determined to be positive with one patient either having stopped taking their medicine between day 4 and 5 or just being below the reporting cutoffs for both aripiprazole and dehydroaripiprazole. Thus, use of OPC3373 as a urine biomarker even at this relatively high dose adds value to compliance monitoring for Abilify®.

[5] = Urine testing for compliance over 5 days, patients prescribed 5 mg/day Abilify (Example 7); type: in vivo, human; design: Aripiprazole (urine test result) / Dehydroaripiprazole (urine test result): unit not given here; details: for Dehydroaripiprazole (urine test result) / Aripiprazole (urine test result): human urine, patients prescribed 5 mg/day Abilify
Description: as §1
(§2) The urine of 25 patients who were prescribed 5 mg of Abilify® (aripiprazole) was tested for compliance over 5 days (Table 11). […] Without OPC3373, only 47% were determined to be positive with patients just being below the reporting cutoffs for both aripiprazole and dehydroaripiprazole. Thus, use of OPC3373 as a urine biomarker at this lower dose adds a great deal of value to compliance monitoring for Abilify®.

[6] = Urine testing for compliance over 5 days, patients prescribed 10 mg/day Abilify (Example 6); type: in vivo, human; details: n 111 samples
Description: as §1
as §2, with “of 37” for “of 25”, “prescribed 10” for “prescribed 5”, “(Table 9).” for “(Table 11).”, “only 61%” for “only 47%”, “this” for “this lower”, “adds” for “adds a great deal of”

[7] = Urine testing for compliance over 5 days, patients prescribed 15 mg/day Abilify (Example 5); type: in vivo, human; design: urine concentration: unit not given here; details: for urine concentration, Avg / urine concentration, Max / urine concentration, Min: n 69 samples
Description: as §1
The urine of 23 patients who were prescribed 15 mg of Abilify® (aripiprazole) was tested for compliance over 5 days (Table 7). […] Without OPC3373, only 78% were determined to be positive with patients just being below the reporting cutoffs for both aripiprazole and dehydroaripiprazole. […] Thus, use of OPC3373 as a urine biomarker at this dose adds value to compliance monitoring for Abilify®.

[8] = Urine testing for compliance over 5 days, patients prescribed 20 mg/day Abilify (Example 4); type: in vivo, human; details: n 66 samples
Description: as §1
The urine of 22 patients who were prescribed 20 mg of Ability (e.g., aripiprazole) was tested for compliance over 5 days (Table 5). […] Without OPC3373, only 85% were determined to be positive with patients just being below the reporting cutoffs for both aripiprazole and dehydroaripiprazole. Thus, use of OPC3373 as a urine biomarker even at this relatively high dose adds value to compliance monitoring for Abilify®.

[9] = Urine testing for compliance over 5 days, patients prescribed 2 mg/day Abilify (Example 8); type: in vivo, human; design: Urine concentration, individual subject: unit not given here
Description: as §1
The urine of 15 patients who were prescribed 2 mg of Abilify® (aripiprazole) was tested for compliance over 5 days (Table 14). […] Without OPC3373, only 24% were determined to be positive with patients just being below the reporting cutoffs for both aripiprazole and dehydroaripiprazole. Thus, use of OPC3373 as a urine biomarker at this lower dose makes compliance monitoring for Abilify® possible. […] However, OPC3373 in subject M confirmed the subject's adherence to aripirazole therapy despite the low observed creatinine level.

[10] = Day 1, subjects A-O (one value per subject)
[11] = Day 4, subjects A-O (one value per subject)
[12] = Day 5, subjects A-O (one value per subject)

O=C(O)CCCOc1ccc2c(c1)NC(=O)CC2 [OPC3373, 4-[(2-Oxo-1,2,3,4-tetrahydro-7-quinolinyl)oxy]butanoic acid]
share of a dose represented in plasma [1]: 2% | recovered from a dose as urinary metabolite ([1]; urine, reported by Baselt): 19% | Range of levels in Human Urine ([2]; human, in vivo): 10*-1500 ng/mL

O=c1ccc2ccc(OCCCCN3CCN(c4cccc(Cl)c4Cl)CC3)cc2[nH]1 [Dehydroaripiprazole, dehydroaripiprazole]
Abilify Urine Results [3]: 0 ng/mL (3×) and 6.5 ng/mL and 5.2 ng/mL and 6.4 ng/mL | urine concentration ([4]; Day 1): 11.5 and 29.2 and 6.8 and 56.9 and 14.1 | urine concentration ([4]; Day 4): 14.1 and 84.8 and 11.0 and 36.3 and 16.6 | urine concentration ([4]; Day 5): 0 and 17.0 and 8.9 and 89.7 and 28.1 | urine concentration, Avg ([4]; 30 mg/day, n 15 samples): 28.33 ng/mL | urine concentration, Max ([4]; 30 mg/day, n 15 samples): 89.70 ng/mL | urine concentration, Min ([4]; 30 mg/day, n 15 samples): 0.00 ng/mL | Urine drug/metabolite concentration, Extremes ([5]; 5 mg/day Abilify, Day 1): 0-6.5 | Urine drug/metabolite concentration, Mean +/- SD ([5]; 5 mg/day Abilify, Day 1): 2.3 +/− 3.2 | Urine drug/metabolite concentration, Median ([5]; 5 mg/day Abilify, Day 1): 0 | Urine drug/metabolite concentration, Extremes ([5]; 5 mg/day Abilify, Day 4): 0-6.1 | Urine drug/metabolite concentration, Median ([5]; 5 mg/day Abilify, Day 4): 0 | Urine drug/metabolite concentration, Extremes ([5]; 5 mg/day Abilify, Day 5): 0-8.2 | Urine drug/metabolite concentration, Median ([5]; 5 mg/day Abilify, Day 5): 0 | urine concentration, Avg ([5]; 5 mg/day Abilify, n 75 samples): 1.96 | urine concentration, Max ([5]; 5 mg/day Abilify, n 75 samples): 17.1 | urine concentration, Min ([5]; 5 mg/day Abilify, n 75 samples): 0 | Dehydroaripiprazole (urine test result) ([5]; Day 1): 6.6 and 0 (20×) and 5.1 and 7.4 and 5.3 and 8.7 | Dehydroaripiprazole (urine test result) ([5]; Day 4): 10.2 and 0 (19×) and 17.1 and 8.0 and 7.5 and 7.4 and 8.4 | Dehydroaripiprazole (urine test result) ([5]; Day 5): 5.7 and 0 (19×) and 5.2 and 5.5 and 15.8 and 8.2 and 15.1 | urine concentration, Max [6]: 64.8 | urine concentration, Min [6]: 0 | urine concentration, avg [6]: 6.27 | share of a dose represented in plasma [1]: 20% | urine concentration ([7]; Day 1, individual subjects): 27.9 and 0 (6×) and 21 and 10.1 and 5.9 and 11.4 (2×) and 12.8 and 25.4 and 12.3 and 6.7 and 6.1 and 5.5 and 9.6 and 5.2 and 5.1 and 14.6 and 6.6 | urine concentration ([7]; Day 4, individual subjects): 16.8 and 7.4 and 20.7 and 7.5 and 0 (11×) and 24 and 21.0 and 10.1 and 25.8 and 8.6 and 8.1 and 14.3 and 8.0 | urine concentration ([7]; Day 5, individual subjects): 12.8 and 0 (9×) and 5.2 and 17.0 and 24.1 (2×) and 23.1 and 23.9 and 33.3 and 12.3 and 6.5 and 11.2 and 16.6 and 0.0 and 24.9 | urine concentration, Avg [7]: 8.76 | urine concentration, Max [7]: 33.30 | urine concentration, Min [7]: 0.00 | urine concentration, Avg [8]: 12.30 | urine concentration, Max [8]: 91.40 | urine concentration, Min [8]: 0.00 | Urine drug/metabolite concentration, Extremes ([9]; Day 1): 0-7.4 | Urine drug/metabolite concentration, Mean +/- SD ([9]; Day 1): 0.5 +/− 1.9 | Urine drug/metabolite concentration, Median ([9]; Day 1): 0 | Urine concentration, individual subject [9, 10]: 0 | Urine drug/metabolite concentration, Extremes ([9]; Day 4): 0-0 | Urine drug/metabolite concentration, Mean +/- SD ([9]; Day 4): 0 +/− 0 | Urine drug/metabolite concentration, Median ([9]; Day 4): 0 | Urine concentration, individual subject [9, 11]: 0 | Urine drug/metabolite concentration, Extremes ([9]; Day 5): 0-0 | Urine drug/metabolite concentration, Mean +/- SD ([9]; Day 5): 0 +/− 0 | Urine drug/metabolite concentration, Median ([9]; Day 5): 0 | Urine concentration, individual subject [9, 12]: 0 (13×) and 10.7 and 0.0 | urine concentration, Avg ([9]; n 45 samples): 0.24 | urine concentration, Max ([9]; n 45 samples): 10.7 | urine concentration, Min ([9]; n 45 samples): 0 | Levels in Human Urine [2]: <5.0 ng/mL (7×) and 5.1 ng/mL (2×) and 14.1 ng/mL and 0.0 ng/mL (5×) and 17.8 ng/mL and 20.1 ng/mL and 5.9 ng/mL and 0 ng/mL and 15.8 ng/mL and 8.8 ng/mL and 56.1 ng/mL | Range of levels in Human Urine ([2]; over 22 specimens, * below LOQ): 5 to 75 ng/mL

O=C1CCc2ccc(OCCCCN3CCN(c4cccc(Cl)c4Cl)CC3)cc2N1 [Aripiprazole]
Abilify Urine Results [3]: 0 ng/mL and 11.1 ng/mL and 22.3 ng/mL and 9.4 ng/mL and 19.4 ng/mL and 11.6 ng/mL | Aripiprazole (urine test result) ([5]; Day 1): 10.1 and 0 (13×) and 9 and 7.5 and 5.0 and 9.7 and 8.5 and 8.8 and 8.4 and 13.1 and 6.4 and 38.4 and 5.4 | Aripiprazole (urine test result) ([5]; Day 4): 21.5 and 11.3 and 6.6 (2×) and 0.0 (2×) and 5.2 and 0 (9×) and 32.4 and 13.1 and 15.6 and 6.5 and 10.3 and 7.5 and 5.5 and 9.5 and 11.8 | Aripiprazole (urine test result) ([5]; Day 5): 10.2 and 5.1 and 7.3 and 0 (15×) and 14.9 and 0.0 and 5.3 and 10.1 and 12.7 and 9.7 and 31.6 | oral dose excreted as unchanged aripiprazole in faeces ([1]; faeces, humans): 8-18% | time of dosing until steady state serum concentrations are achieved ([1]; in vivo): two | share of a dose represented in plasma [1]: 57% | oral dose excreted as unchanged aripiprazole in urine ([1]; urine, humans): Less than 1% | urine concentration ([7]; Day 1, individual subjects): 52.2 and 0 (6×) and 5.3 and 15.1 and 31.2 and 15.4 and 17.9 and 20.0 and 31.5 and 9.8 and 8.9 and 17.5 and 15.0 and 10.1 and 5.4 and 19.4 and 27.6 and 14.6 | urine concentration ([7]; Day 4, individual subjects): 31.7 and 19.5 and 39.3 and 10.2 and 8.9 and 12.3 and 0 (8×) and 40 and 26.7 and 45.3 and 14.5 and 6.2 and 5.7 and 7.9 and 62.3 and 19.0 | urine concentration ([7]; Day 5, individual subjects): 22.8 and 0 (5×) and 16.4 and 9.3 and 6.9 and 32.1 and 37.1 and 16.7 and 7.4 and 57.3 and 12.3 and 14.2 (2×) and 7.5 and 17.7 and 25.3 and 5.1 and 76.7 and 9.6 | urine concentration, Avg [7]: 15.29 | urine concentration, Max [7]: 76.70 | urine concentration, Min [7]: 0.00 | Urine concentration, individual subject [9, 10]: 9.0 and 0 (6×) and 7.9 | Urine concentration, individual subject [9, 11]: 0 | Urine concentration, individual subject [9, 12]: 10.5 and 0 (4×) and 30.9 and 6.1 | Levels in Human Urine [2]: 9.5 ng/mL and <5.0 ng/mL (9×) and 32.4 ng/mL and 9.7 ng/mL and 53.3 ng/mL and 84.9 ng/mL and 38.7 ng/mL and 10 ng/mL and 0.0 ng/mL (2×) and 17.4 ng/mL and 17.9 ng/mL and 5.0 ng/mL and 39.5 ng/mL | Range of levels in Human Urine ([2]; over 22 specimens, * below LOQ): 5 to 100 ng/mL
